Experimental data published in US8664391B2, “Amide compounds as boosters of antivirals” (Janssen R&D Ireland Ltd, priority 2008, dated 2014).
Where two headings read alike, the source gives them in different places.

Tests used:
[1] = test system: wild-type HIV-1 IIIB strain; assay: Antiviral activity in MT4 LTR-EGFP cellular assay; format: cell-based; conditions: read-out: Antiviral Activity IIIB pEC50 (converted)
Experimental: (§1) Assay 1 &2: Antiviral Activity/Toxicity
The compounds of the present invention were tested for antiviral activity in a cellular assay, which was performed according to the following procedure.
The human T-cell line MT4 is engineered with Green Fluorescent Protein (GFP) and an HIV-specific promoter, HIV-1 long terminal repeat (LTR). This cell line is designated MT4 LTR-EGFP, and can be used for the in vitro evaluation of anti-HIV activity of investigational compounds. In HIV-1 infected cells, the Tat protein is produced which upregulates the LTR promotor and finally leads to stimulation of the GFP reporter production, allowing measuring ongoing HIV-infection fluorometrically.
(§2) The ratio of CC50 to EC50 is defined as the selectivity index (SI) and is an indication of the selectivity of the anti-HIV activity of the inhibitor. The ultimate monitoring of HIV-1 infection and cytotoxicity is done using a scanning microscope. Image analysis allows very sensitive detection of viral infection. Measurements are done before cell necrosis, which usually takes place about five days after infection, in particular measurements are performed three days after infection.
A pEC50 value corresponds to −log10(EC50). A pCC50 value corresponds to −log10(CC50).

[2] = Cytotoxicity in mock-infected MT4 CMV-EGFP cells; format: cell-based; conditions: human, pCC50 = -log10(CC50), read-out: Toxicity MT4 pCC50 (converted)
Excerpt: as §1
Analogously, MT4 cells are engineered with GFP and the constitutional cytomegalovirus (CMV) promotor. This cell line is designated MT4 CMV-EGFP, and can be used for the in vitro evaluation of cytotoxicity of investigational compounds. In this cell line, GFP levels are comparably to those of infected MT4 LTR-EGFP cells. Cytotoxic investigational compounds reduce GFP levels of mock-infected MT4 CMV-EGFP cells.
as §2, with “Effective concentration values such as 50% effective concentration (EC50) can be determined and are usually expressed in μM. An EC50 value is defined as the concentration of test compound that reduces the fluorescence of HIV-infected cells by 50%. The 50% cytotoxic concentration (CC50 in μM) is defined as the concentration of test compound that reduces fluorescence of the mock-infected cells by 50%. The ratio” for “The ratio”
Table 2 lists pEC50 values against the wild-type HIV-1 IIIB strain as well as pCC50 values for a selected number of compounds of the invention. A pEC50 value corresponds to −log10(EC50). A pCC50 value corresponds to −log10(CC50).

[3] = in vitro; format: in vitro ADME, human; conditions: pH 7.4
Excerpt: Assay 3: Metabolic Stability of Test Compounds (HLM15′)
Sub-cellular tissue preparations are made according to Gorrod et al. (Xenobiotica, 5, pp. 453-462 (1975)) by centrifugal separation after mechanical homogenization of tissue. Human liver tissue is rinsed in ice-cold 0.1 M Tris-HCl (pH 7.4) buffer to wash excess blood. Tissue is then blotted dry, weighed and chopped coarsely using surgical scissors. The tissue pieces are homogenized in 3 volumes of ice-cold 0.1 M phosphate buffer (pH 7.4) using either a Potter-S (Braun, Italy) equipped with a Teflon pestle or a Sorvall Omni-Mix homogenizer, for 7×10 sec. In both cases, the vessel is kept in/on ice during the homogenization process. Tissue homogenates are centrifuged at 9000×g for 20 min at 4° C. using a Sorvall centrifuge or Beckman Ultracentrifuge. The resulting supernatant can be stored at −80° C. and is designated ‘S9’. The S9 fraction is centrifuged at 100,000×g for 60 min at 4° C. using a Beckman ultracentrifuge. The resulting supernatant is carefully aspirated, aliquoted and designated ‘cytosol’. The pellet is re-suspended in 0.1 M phosphate buffer (pH 7.4) in a final volume of 1 ml per 0.5 g original tissue weight and designated ‘microsomes’. All sub-cellular fractions are aliquoted, immediately frozen in liquid nitrogen and stored at −80° C. until use.
Heat-inactivated (10 min at 95° C.) ‘S9’ or microsomes were used for blank experiments. Reaction mixtures were incubated at 37° C. for 5 min, after which the reaction was started by the addition of 0.8 mM β-NADP. The reaction was incubated for 0 or 15 min. Next, the reaction was stopped by addition of 2 volumes of DMSO (or acetonitrile). Samples were centrifuged (10 min, 900×g) and analyzed by LC-MS.

[4] = target: T1, CYP3A4 (Homo sapiens, UniProt P08684); assay: CYP450 inhibition, fluorescent substrate assay, CYP3A4; format: biochemical; conditions: for inhibition at 10 min, 10 μM: substrate DBF 1 μM, read-out: 3A4-DBF % inh.
T1 construct: host or cells: E. coli
Experimental: (§3) Assay 4: CYP450 Inhibition […] This fluorescent molecule was measured using a fluorescent plate reader (Victor2 (Wallac) or Fluoroskan (Labsystems)). Compounds inhibiting the enzymatic reaction will result in a decrease of fluorescent signal. CYP P450 enzymes were prepared in house or commercially bought and stored at −80° C. [table] The assay was performed in black 96 well Costar plates. Test compounds were added to a CYP P450 enzyme solution in the presence of an NADPH generating system. After 5 min of preincubation at 37° C., the freshly prepared, phosphate buffered (pH 7.4) substrate solution was added. Known CYP P450 inhibitors were used as positive controls, negative controls were run without CYP P450 enzyme. For final reaction mixture concentrations, see Table 6. […] Then, the reaction was stopped by the addition of 200 μl acetonitrile, and the fluorescent signal was detected. [table] […] Inhibition of TMC114 Metabolisation

[5] = target: CYP2C9 (Homo sapiens, UniProt P11712); assay: CYP450 inhibition, fluorescent substrate assay, CYP2C9; format: biochemical
Experimental: as §3

[6] = target: T2, CYP2D6 (Homo sapiens, UniProt P10635); assay: CYP450 inhibition, fluorescent substrate assay, CYP2D6; format: biochemical; conditions: substrate AMMC 3 μM, read-out: 2D6-AMMC % inh.
T2 construct: host or cells: E. coli
Experimental: as §3

[7] = target: T3, CYP1A2 (Homo sapiens, UniProt P05177); assay: CYP450 inhibition, fluorescent substrate assay, CYP1A2; format: biochemical; conditions: substrate CEC 5 μM, read-out: 1A2-CEC % inh.
T3 construct: host or cells: E. coli
T3 sequence (P05177 1-516): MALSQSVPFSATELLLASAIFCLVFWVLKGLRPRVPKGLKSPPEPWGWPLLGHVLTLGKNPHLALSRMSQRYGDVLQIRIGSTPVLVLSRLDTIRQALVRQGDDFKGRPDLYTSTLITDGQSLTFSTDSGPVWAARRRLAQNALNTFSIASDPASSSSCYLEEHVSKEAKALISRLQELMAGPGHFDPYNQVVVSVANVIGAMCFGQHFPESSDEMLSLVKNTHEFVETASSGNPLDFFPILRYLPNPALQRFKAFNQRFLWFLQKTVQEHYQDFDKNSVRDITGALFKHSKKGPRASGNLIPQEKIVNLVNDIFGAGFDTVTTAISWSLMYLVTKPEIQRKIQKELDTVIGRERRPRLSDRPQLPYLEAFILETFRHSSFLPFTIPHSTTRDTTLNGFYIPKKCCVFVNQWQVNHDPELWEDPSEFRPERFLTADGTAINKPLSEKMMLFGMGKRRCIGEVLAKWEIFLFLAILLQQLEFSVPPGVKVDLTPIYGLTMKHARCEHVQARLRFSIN
Experimental: as §3

[8] = target: T4, CYP2C19 (Homo sapiens, UniProt P33261); assay: CYP450 inhibition, fluorescent substrate assay, CYP2C19; format: biochemical; conditions: substrate CEC 25 μM, read-out: 2C19-CEC % inh.
T4 construct: host or cells: E. coli
Experimental: as §3

[9] = Human immunodeficiency virus 1, IIIB, 72 h
[10] = human liver microsomes 1 mg/ml, 5 μM test compound, 15 min, 37° C., read-out: % recovery HLM15
[11] = E. coli expressed CYP3A4, pH 7.4, probe BFC (150 μM), 10 μM test compound, substrate BFC 150 μM, read-out: 3A4-BFC % inh.
[12] = E. coli expressed CYP3A4, pH 7.4, probe BQ (60 μM), 10 μM test compound, substrate BQ 60 μM, read-out: 3A4-BQ % inh.
[13] = E. coli expressed CYP3A4, pH 7.4, probe DBF (1 μM), 10 μM test compound
[14] = pH 7.4, 10 μM test compound, substrate MFC 200 μM, 30 min, read-out: 2C9-MFC % inh.
[15] = E. coli expressed CYP2D6, pH 7.4, probe AMMC (3 μM), 10 μM test compound
[16] = E. coli expressed CYP1A2, pH 7.4, probe CEC (5 μM), 10 μM test compound
[17] = E. coli expressed CYP2C19, pH 7.4, probe CEC (25 μM), 10 μM test compound
[18] = Human immunodeficiency virus 1, 72 h, wild-type HIV-1 IIIB, MT4 LTR-EGFP cells, three days after infection, pEC50 = -log10(EC50)

T2 sequence (P10635 whole entry): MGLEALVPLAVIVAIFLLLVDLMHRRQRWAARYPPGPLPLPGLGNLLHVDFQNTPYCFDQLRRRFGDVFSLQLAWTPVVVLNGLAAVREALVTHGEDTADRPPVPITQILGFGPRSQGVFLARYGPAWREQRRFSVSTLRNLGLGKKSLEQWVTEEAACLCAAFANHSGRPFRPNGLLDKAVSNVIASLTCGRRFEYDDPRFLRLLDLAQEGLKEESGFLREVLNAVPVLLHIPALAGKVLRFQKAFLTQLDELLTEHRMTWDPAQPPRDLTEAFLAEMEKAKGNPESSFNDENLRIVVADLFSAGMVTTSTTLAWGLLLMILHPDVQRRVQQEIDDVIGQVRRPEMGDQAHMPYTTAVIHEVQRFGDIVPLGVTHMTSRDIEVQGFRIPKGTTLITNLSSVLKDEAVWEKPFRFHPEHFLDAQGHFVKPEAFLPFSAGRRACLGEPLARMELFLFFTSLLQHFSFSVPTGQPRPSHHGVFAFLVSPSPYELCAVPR
T1 sequence (P08684 whole entry): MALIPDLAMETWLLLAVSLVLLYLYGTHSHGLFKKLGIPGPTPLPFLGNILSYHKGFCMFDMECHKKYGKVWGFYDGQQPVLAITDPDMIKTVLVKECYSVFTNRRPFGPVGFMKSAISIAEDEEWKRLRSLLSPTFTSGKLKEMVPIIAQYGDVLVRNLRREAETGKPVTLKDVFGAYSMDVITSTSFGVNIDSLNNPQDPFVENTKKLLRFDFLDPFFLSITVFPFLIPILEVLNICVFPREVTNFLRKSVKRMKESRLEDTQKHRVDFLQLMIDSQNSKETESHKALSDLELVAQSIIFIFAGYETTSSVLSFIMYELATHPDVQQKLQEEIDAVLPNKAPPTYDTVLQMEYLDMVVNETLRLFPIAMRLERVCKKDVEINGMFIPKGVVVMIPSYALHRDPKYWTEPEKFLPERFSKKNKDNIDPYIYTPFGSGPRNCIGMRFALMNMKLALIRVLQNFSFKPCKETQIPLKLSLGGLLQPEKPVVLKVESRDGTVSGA
T4 sequence (P33261 whole entry): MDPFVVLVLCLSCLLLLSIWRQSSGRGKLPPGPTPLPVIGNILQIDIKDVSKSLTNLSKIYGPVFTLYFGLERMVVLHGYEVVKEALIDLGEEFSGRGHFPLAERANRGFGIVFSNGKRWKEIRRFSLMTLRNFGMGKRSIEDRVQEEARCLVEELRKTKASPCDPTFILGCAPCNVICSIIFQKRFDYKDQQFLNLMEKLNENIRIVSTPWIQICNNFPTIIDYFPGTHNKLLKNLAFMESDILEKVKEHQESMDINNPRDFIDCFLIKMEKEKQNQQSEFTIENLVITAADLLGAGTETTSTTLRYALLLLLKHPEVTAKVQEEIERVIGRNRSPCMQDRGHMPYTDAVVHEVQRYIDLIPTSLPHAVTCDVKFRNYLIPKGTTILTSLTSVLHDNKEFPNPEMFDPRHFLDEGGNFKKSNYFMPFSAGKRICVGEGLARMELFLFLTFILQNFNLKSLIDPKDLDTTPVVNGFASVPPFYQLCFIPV
Chain of CYP2C9 (P11712 whole entry): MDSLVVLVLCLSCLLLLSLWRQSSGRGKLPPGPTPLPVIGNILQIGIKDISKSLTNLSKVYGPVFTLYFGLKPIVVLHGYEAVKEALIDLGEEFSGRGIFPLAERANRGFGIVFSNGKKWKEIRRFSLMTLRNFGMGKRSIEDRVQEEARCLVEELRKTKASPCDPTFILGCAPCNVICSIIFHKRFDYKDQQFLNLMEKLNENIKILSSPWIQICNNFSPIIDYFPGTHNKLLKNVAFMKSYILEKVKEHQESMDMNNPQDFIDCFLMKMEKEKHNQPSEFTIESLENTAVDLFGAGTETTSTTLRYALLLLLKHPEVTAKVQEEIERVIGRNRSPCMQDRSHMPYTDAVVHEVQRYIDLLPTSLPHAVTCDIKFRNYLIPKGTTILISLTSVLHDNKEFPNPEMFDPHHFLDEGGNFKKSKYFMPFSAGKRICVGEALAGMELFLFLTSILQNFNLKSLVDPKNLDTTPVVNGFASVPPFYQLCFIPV

Compound | EC50 [1, 9] [µM] | CC50 at 3 days [2] [µM] | recovery at 15 min, 5 μM [3, 10] [%] | inhibition at 30 min, 10 μM [4, 11] [%] | inhibition at 30 min, 10 μM [4, 12] [%] | inhibition at 10 min, 10 μM [4, 13] [%] | inhibition at 30 min, 10 μM [5, 14] [%] | inhibition at 45 min, 10 μM [6, 15] [%] | inhibition at 15 min, 10 μM [7, 16] [%] | inhibition at 30 min, 10 μM [8, 17] [%] | EC50 [1, 18] [µM] | recovery at 15 min, 5 μM ([3]; human) [%] | inhibition at 30 min, 10 μM ([5]; pH 7.4) [%] | inhibition at 30 min, 10 μM ([4]; pH 7.4, 10 μM test compound, substrate BFC 150 μM, read-out: 3A4-BFC % inh.) [%] | inhibition at 30 min, 10 μM ([4]; pH 7.4, 10 μM test compound, substrate BQ 60 μM, read-out: 3A4-BQ % inh.) [%] | inhibition at 10 min, 10 μM ([4]; pH 7.4, 10 μM test compound) [%] | inhibition at 45 min, 10 μM ([6]; pH 7.4, 10 μM test compound) [%] | inhibition at 15 min, 10 μM ([7]; pH 7.4, 10 μM test compound) [%] | inhibition at 30 min, 10 μM ([8]; pH 7.4, 10 μM test compound) [%]
CC(C)CN(C[C@@H](O)[C@H](Cc1ccccc1)NC(=O)OCc1cncs1)C(=O)c1cccc(Br)c1 [Compound C17] | 41.7 | 36.3 | 68 | 57 | 81 | 93 | 98 | 46 | 55 | 87 | – | – | – | – | – | – | – | – | –
CC(C)CN(C[C@@H](O)[C@H](Cc1ccccc1)NC(=O)OCc1cncs1)C(=O)c1ccc(Br)cc1 [Compound C18] | 38.9 | 41.7 | 57 | 83 | 84 | 94 | 98 | 64 | 63 | 93 | – | – | – | – | – | – | – | – | –
CC(C)CN(C[C@@H](O)[C@H](Cc1ccccc1)NC(=O)OCc1cccnc1)C(=O)c1ccncc1 [Compound C20] | – | > 100 | – | 88 | 66 | 85 | – | 13 | 6 | 41 | > 100 | 37 | 63 | – | – | – | – | – | –
CC(C)CN(C[C@@H](O)[C@H](Cc1ccccc1)NC(=O)OCc1cncs1)C(=O)c1ccco1 [Compound C21] | > 100 | > 100 | 62 | – | – | – | 95 | – | – | – | – | – | – | 87 | 81 | 95 | 62 | 43 | 75
CC(C)(C)CN(C[C@@H](O)[C@H](Cc1ccccc1)NC(=O)OCc1cncs1)C(=O)c1ccncc1 [Compound C22] | – | > 100 | – | 93 | 74 | 89 | – | 62 | 0 | 60 | > 100 | 77 | 69 | – | – | – | – | – | –
CC(C)CN(C[C@@H](O)[C@H](Cc1ccccc1)NC(=O)OCc1cncs1)C(=O)C1CCC(F)(F)CC1 [Compound C23] | – | 55 | – | 94 | 73 | 92 | – | 65 | 22 | 77 | 51.3 | 72 | 89 | – | – | – | – | – | –
CC(C)CN(C[C@@H](O)[C@H](Cc1ccccc1)NC(=O)OCc1cncs1)C(=O)CCc1cncs1 [Compound C24] | – | > 100 | – | 101 | 82 | 89 | – | 96 | 13 | 86 | 97.7 | 56 | 92 | – | – | – | – | – | –
CC(C)CN(C[C@@H](O)[C@H](Cc1ccccc1)NC(=O)OCc1cncs1)C(=O)OCc1cncs1 [Compound C25] | – | 77.6 | – | 100 | 79 | 89 | – | 91 | 25 | 97 | 69.2 | 63 | 95 | – | – | – | – | – | –
